Data: PubChem BioAssay AID248 (DTP/NCI, 2004)
Several values for one entry are separate records, joined by “and”; a condition that tells them apart may be missing. Equal values may be shown once. Toxic doses and inconclusive results are not listed. Rule as the data show it: active = T/C of 150% or more; inactive = T/C below 125%.

System: L1210 leukemia ip in BDF1 mice, survival T/C
Experiment: NCI In Vivo Anticancer Drug Screen. Data for tumor model L1210 Leukemia (intraperitoneal) in B6D2F1 (BDF1) mice
Conditions: endpoint: mean survival time, higher = longer survival
Summary of the method: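 Tumor cells were implanted, animals were treated, and survival was followed. The result divides the treated measurement by the vehicle-control measurement.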

[1] = dose: 100.0 mg/kg/injection, schedule: Q04DX003 (ip), vehicle: saline with Tween-80
[2] = dose: 100.0 mg/kg/injection, schedule: Q01DX001 (ip), vehicle: saline
[3] = dose: 200.0 mg/kg/injection, schedule: Q01DX001 (ip), vehicle: saline
[4] = dose: 400.0 mg/kg/injection, schedule: Q01DX001 (ip), vehicle: saline
[5] = dose: 100.0 mg/kg/injection, schedule: Q01DX009 (ip), vehicle: saline with Tween-80
[6] = dose: 200.0 mg/kg/injection, schedule: Q01DX009 (ip), vehicle: saline with Tween-80
[7] = dose: 400.0 mg/kg/injection, schedule: Q01DX009 (ip), vehicle: saline with Tween-80
[8] = dose: 100.0 mg/kg/injection, schedule: Q01DX009 (ip), vehicle: Klucel (hydroxypropylcellulose) (HPC)
[9] = dose: 200.0 mg/kg/injection, schedule: Q01DX009 (ip), vehicle: Klucel (hydroxypropylcellulose) (HPC)
[10] = dose: 400.0 mg/kg/injection, schedule: Q01DX009 (ip), vehicle: Klucel (hydroxypropylcellulose) (HPC)
[11] = dose: 100.0 mg/kg/injection, schedule: Q01DX001 (ip), vehicle: saline with Tween-80
[12] = dose: 200.0 mg/kg/injection, schedule: Q01DX001 (ip), vehicle: saline with Tween-80
[13] = dose: 400.0 mg/kg/injection, schedule: Q01DX001 (ip), vehicle: saline with Tween-80

Measured: T/C

COc1cc(NC(C)CCCN)c2ncccc2c1 (centres undefined)
inactive: dose: 25.0 mg/kg/injection, schedule: Q04DX003 (ip), vehicle: saline with Tween-80 104 % of control | dose: 50.0 mg/kg/injection, schedule: Q04DX003 (ip), vehicle: saline with Tween-80 95 % of control | [1] 95 % of control and 105 % of control

CCOCCOC(=O)c1ccc(C(N)=NC)cc1
inactive: [2] 91 % of control | [3] 94 % of control | [4] 94 % of control

OC(CN1CCCC1)c1cc2cc(Br)ccc2s1 (centres undefined)
inactive: [2] 107 % of control

C=COCCN1CCN(CCCN2c3ccccc3Sc3ccc(C(F)(F)F)cc32)CC1
inactive: dose: 3.13 mg/kg/injection, schedule: Q04DX003 (ip), vehicle: saline 102 % of control | dose: 6.25 mg/kg/injection, schedule: Q04DX003 (ip), vehicle: saline 102 % of control | dose: 12.5 mg/kg/injection, schedule: Q04DX003 (ip), vehicle: saline 107 % of control

CC(C)=CC(=O)O
inactive: [5] 95 % of control | [6] 98 % of control | [7] 104 % of control

Nc1sc(C(=O)O)cc1[N+](=O)[O-]
inactive: dose: 200.0 mg/kg/injection, schedule: Q01DX001 (ip), vehicle: carboxymethylcellulose (CMC) 92 % of control | dose: 400.0 mg/kg/injection, schedule: Q01DX001 (ip), vehicle: carboxymethylcellulose (CMC) 92 % of control

CCOC(=O)NCC(C)(C)C
inactive: [2] 104 % of control | [3] 107 % of control | [4] 93 % of control

O=C(/C=C/c1ccc(Cl)cc1)c1ccc(Br)cc1
inactive: [8] 94 % of control | [9] 94 % of control | [10] 92 % of control

COc1c(OC)c(C(C)C)c2c(OC(C)=O)c(C)c(-c3c(C)c(OC(C)=O)c4c(C(C)C)c(OC)c(OC)c5c4c3OC5=O)c3c2c1C(=O)O3
inactive: dose: 50.0 mg/kg/injection, schedule: Q01DX001 (ip), vehicle: Klucel (hydroxypropylcellulose) (HPC) 100 % of control | dose: 100.0 mg/kg/injection, schedule: Q01DX001 (ip), vehicle: Klucel (hydroxypropylcellulose) (HPC) 93 % of control | dose: 200.0 mg/kg/injection, schedule: Q01DX001 (ip), vehicle: Klucel (hydroxypropylcellulose) (HPC) 98 % of control

COC1=C(F)C(=O)C(OC)=C(F)C1=O
inactive: dose: 1.2 mg/kg/injection, schedule: Q01DX001 (ip), vehicle: alcohol 101 % of control | dose: 2.5 mg/kg/injection, schedule: Q01DX001 (ip), vehicle: alcohol 97 % of control | dose: 5.0 mg/kg/injection, schedule: Q01DX001 (ip), vehicle: alcohol 103 % of control

CCCCCCCCCCC(C)c1ccc(S(=O)(=O)O)cc1 (centres undefined)
inactive: dose: 100.0 mg/kg/injection, schedule: Q01DX001 (ip), vehicle: saline sonified 97 % of control | dose: 200.0 mg/kg/injection, schedule: Q01DX001 (ip), vehicle: saline sonified 107 % of control

CCOC(=O)C(CC)c1nc2ccccc2o1 (centres undefined)
inactive: dose: 50.0 mg/kg/injection, schedule: Q01DX009 (ip), vehicle: saline with Tween-80 109 % of control | [5] 100 % of control | [6] 95 % of control | [7] 94 % of control

Cc1cc(-c2ccc([N+](=O)[O-])cc2)cn1-c1ccccc1
inactive: dose: 50.0 mg/kg/injection, schedule: Q04DX002 (ip), vehicle: saline with Tween-80 97 % of control | dose: 100.0 mg/kg/injection, schedule: Q04DX002 (ip), vehicle: saline with Tween-80 97 % of control and 89 % of control | dose: 200.0 mg/kg/injection, schedule: Q04DX002 (ip), vehicle: saline with Tween-80 87 % of control | dose: 400.0 mg/kg/injection, schedule: Q04DX002 (ip), vehicle: saline with Tween-80 96 % of control

CC(=O)NC1C(OCc2ccccc2)OC(COC(c2ccccc2)(c2ccccc2)c2ccccc2)C(OS(=O)(=O)c2ccc(C)cc2)C1OCc1ccccc1 (centres undefined)
inactive: [11] 100 % of control | [12] 86 % of control | [13] 100 % of control

Oc1ccccc1/C=N\N=C\c1ccccc1O
inactive: dose: 50.0 mg/kg/injection, schedule: Q04DX002 (ip), vehicle: Klucel (hydroxypropylcellulose) (HPC) 93 % of control | dose: 100.0 mg/kg/injection, schedule: Q01DX001 (ip), vehicle: other 97 % of control | dose: 100.0 mg/kg/injection, schedule: Q04DX002 (ip), vehicle: Klucel (hydroxypropylcellulose) (HPC) 101 % of control | dose: 200.0 mg/kg/injection, schedule: Q01DX001 (ip), vehicle: other 103 % of control | dose: 200.0 mg/kg/injection, schedule: Q04DX002 (ip), vehicle: Klucel (hydroxypropylcellulose) (HPC) 112 % of control | dose: 400.0 mg/kg/injection, schedule: Q01DX001 (ip), vehicle: other 94 % of control

O=c1cc(-c2ccccc2)nc2ccccn12
inactive: [11] 101 % of control | [12] 101 % of control | [13] 95 % of control

C[n+]1cc(C#N)cc(C#N)c1
inactive: dose: 75.0 mg/kg/injection, schedule: Q01DX001 (ip), vehicle: saline 90 % of control | dose: 150.0 mg/kg/injection, schedule: Q01DX001 (ip), vehicle: saline 108 % of control

Brc1ccc(Nc2c3ccccc3nc3ccccc23)cc1
inactive: [1] 97 % of control | dose: 200.0 mg/kg/injection, schedule: Q04DX003 (ip), vehicle: saline with Tween-80 103 % of control

C=CCSc1nc(N)nc2c1ncn2C1CC(O)C(CO)O1 (centres undefined)
inactive: dose: 100.0 mg/kg/injection, schedule: Q01DX005 (ip), vehicle: saline 102 % of control | dose: 100.0 mg/kg/injection, schedule: Q01DX009 (ip), vehicle: saline 102 % of control | dose: 200.0 mg/kg/injection, schedule: Q01DX005 (ip), vehicle: saline 104 % of control | dose: 200.0 mg/kg/injection, schedule: Q01DX009 (ip), vehicle: saline 109 % of control | dose: 400.0 mg/kg/injection, schedule: Q01DX009 (ip), vehicle: saline 109 % of control

CCCCC(CC)(CCC)CCN (centres undefined)
inactive: dose: 5.0 mg/kg/injection, schedule: Q01DX001 (ip), vehicle: carboxymethylcellulose (CMC) 100 % of control | dose: 10.0 mg/kg/injection, schedule: Q01DX001 (ip), vehicle: carboxymethylcellulose (CMC) 110 % of control | dose: 20.0 mg/kg/injection, schedule: Q01DX001 (ip), vehicle: carboxymethylcellulose (CMC) 100 % of control

CSc1cccc(NC(=O)/C=C/C(=O)O)c1
inactive: dose: 75.0 mg/kg/injection, schedule: Q01DX009 (ip), vehicle: Klucel (hydroxypropylcellulose) (HPC) 98 % of control | dose: 150.0 mg/kg/injection, schedule: Q01DX009 (ip), vehicle: Klucel (hydroxypropylcellulose) (HPC) 93 % of control | dose: 300.0 mg/kg/injection, schedule: Q01DX009 (ip), vehicle: Klucel (hydroxypropylcellulose) (HPC) 93 % of control

C(/C=C/C=C/Nc1ccc(N=Nc2ccccc2)cc1)=Nc1ccc(N=Nc2ccccc2)cc1
inactive: dose: 100.0 mg/kg/injection, schedule: Q01DX009 (ip), vehicle: saline sonified 94 % of control | dose: 100.0 mg/kg/injection, schedule: Q04DX003 (ip), vehicle: saline sonified 94 % of control | dose: 200.0 mg/kg/injection, schedule: Q01DX009 (ip), vehicle: saline sonified 94 % of control | dose: 200.0 mg/kg/injection, schedule: Q04DX003 (ip), vehicle: saline sonified 93 % of control | dose: 400.0 mg/kg/injection, schedule: Q04DX003 (ip), vehicle: saline sonified 91 % of control

NC(CCl)=NCCC1=NCCN1
inactive: dose: 100.0 mg/kg/injection, schedule: Q04DX002 (ip), vehicle: saline 100 % of control | dose: 200.0 mg/kg/injection, schedule: Q04DX002 (ip), vehicle: saline 106 % of control

O=C(Nc1ccc([N+](=O)[O-])cc1Cl)SCCSC(=O)Nc1ccc([N+](=O)[O-])cc1Cl
inactive: [8] 114 % of control | [9] 94 % of control | [10] 105 % of control
